Assay results reported in ChEMBL document CHEMBL4400531, “Structure-Based Design of N-(5-Phenylthiazol-2-yl)acrylamides as Novel and Potent Glutathione S-Transferase Omega 1 Inhibitors” (J Med Chem, 2019).

Experiments:
[1] = Half life in human liver microsomes at 1 uM in presence of NADPH by LC-MS/MS analysis; assay type: ADME, Microsome
[2] = Half life in mouse liver microsomes at 1 uM in presence of NADPH by LC-MS/MS analysis; assay type: ADME, Microsome
[3] = Stability of the compound in 20% acetonitrile/PBS buffer at room temperature by LC-MS/MS analysis; assay type: physicochemical
HCT-116 = experiment: cells; conditions: Homo sapiens, HCT-116, 72 h
Description: Antiproliferative activity against human HCT116 cells after 72 hrs by MTT assay

HT-29 = experiment: cells; conditions: Homo sapiens, HT-29, 72 h
[4] = molecular target: T1, Glutathione S-transferase omega-1 (Homo sapiens, UniProt P78417); experiment: Inhibition of CMFDA binding to human N-terminal 6x-His-tagged GSTO1-1 preincubated for 30 mins followed by CMFDA addition and measured after 30 mins by in-gel fluorescence binding assay
T1 sequence (P78417 whole entry): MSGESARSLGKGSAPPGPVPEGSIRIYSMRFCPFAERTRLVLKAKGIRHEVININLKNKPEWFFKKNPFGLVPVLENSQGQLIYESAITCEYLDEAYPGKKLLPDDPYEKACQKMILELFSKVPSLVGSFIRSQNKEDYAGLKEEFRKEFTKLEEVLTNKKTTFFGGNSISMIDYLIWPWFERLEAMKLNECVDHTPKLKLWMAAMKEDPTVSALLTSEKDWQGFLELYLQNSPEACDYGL

[5] = Metabolic stability in human liver microsomes at 1 uM in presence of NADPH incubated for 45 mins by LC-MS/MS analysis; assay type: ADME, Microsome; conditions: read-out: Stability
[6] = Metabolic stability in human liver microsomes at 1 uM in presence of NADPH incubated for 60 mins by LC-MS/MS analysis; assay type: ADME, Microsome; conditions: read-out: Stability
[7] = Metabolic stability in mouse liver microsomes at 1 uM in presence of NADPH incubated for 45 mins by LC-MS/MS analysis; assay type: ADME, Microsome; conditions: read-out: Stability
[8] = Metabolic stability in human liver microsomes at 1 uM in presence of NADPH incubated for 30 mins by LC-MS/MS analysis; assay type: ADME, Microsome; conditions: read-out: Stability
[9] = Metabolic stability in mouse liver microsomes at 1 uM in presence of NADPH incubated for 60 mins by LC-MS/MS analysis; assay type: ADME, Microsome; conditions: read-out: Stability
[10] = Metabolic stability in mouse liver microsomes at 1 uM in presence of NADPH incubated for 10 mins by LC-MS/MS analysis; assay type: ADME, Microsome; conditions: read-out: Stability
[11] = Metabolic stability in mouse liver microsomes at 1 uM in presence of NADPH incubated for 30 mins by LC-MS/MS analysis; assay type: ADME, Microsome; conditions: read-out: Stability
[12] = Metabolic stability in human liver microsomes at 1 uM in presence of NADPH incubated for 5 mins by LC-MS/MS analysis; assay type: ADME, Microsome; conditions: read-out: Stability
[13] = Metabolic stability in mouse liver microsomes at 1 uM in presence of NADPH incubated for 5 mins by LC-MS/MS analysis; assay type: ADME, Microsome; conditions: read-out: Stability
[14] = Metabolic stability in human liver microsomes at 1 uM in presence of NADPH incubated for 15 mins by LC-MS/MS analysis; assay type: ADME, Microsome; conditions: read-out: Stability
[15] = Metabolic stability in human liver microsomes at 1 uM in presence of NADPH incubated for 0 mins by LC-MS/MS analysis; assay type: ADME, Microsome; conditions: read-out: Stability
[16] = Metabolic stability in human liver microsomes at 1 uM in presence of NADPH incubated for 10 mins by LC-MS/MS analysis; assay type: ADME, Microsome; conditions: read-out: Stability
[17] = Metabolic stability in mouse liver microsomes at 1 uM in presence of NADPH incubated for 0 mins by LC-MS/MS analysis; assay type: ADME, Microsome; conditions: read-out: Stability
[18] = Metabolic stability in mouse liver microsomes at 1 uM in presence of NADPH incubated for 15 mins by LC-MS/MS analysis; assay type: ADME, Microsome; conditions: read-out: Stability

SMILES	IC50 (HCT-116)	IC50 (HT-29)	IC50 [4]	further results
C=CC(=O)Nc1nc(-c2ccc(Cl)cc2)cs1				t1/2 [1]: 9.52 min; t1/2 [2]: 3.21 min; Stability [3]: Stable
C=CC(=O)Nc1cnn(Cc2ccccc2)c1	> 30 µM	> 30 µM	> 10 µM	
C=CC(=O)Nc1cnn(-c2ccccc2)c1	> 30 µM	> 30 µM	> 10 µM	
COC(=O)/C=C/CNc1ccc(Cl)c(S(=O)(=O)N(C)C)c1	> 30 µM	> 30 µM	> 10 µM	
C=CC(=O)N1CCC(Cc2ccccc2)CC1	> 30 µM	> 30 µM	> 10 µM	
C=CC(=O)Nc1nc(-c2ccc(O)cc2)cs1	7.1 to 12.5 µM	6.1 to 13.5 µM	> 10 µM	
C=CC(=O)Nc1nc(-c2ccccc2OC)cs1	> 30 µM	> 30 µM	> 10 µM	
C=CC(=O)N1CCC(c2ccccc2)CC1	> 30 µM	> 30 µM	> 10 µM	
C=CC(=O)N(Cc1cc(C)no1)c1nc(-c2ccccc2O)cs1				remaining at 0.75 h, 1 µM [5]: 3.7%; t1/2 [1]: 1.89 min; remaining at 1 h, 1 µM [6]: 3.7%; remaining at 0.75 h, 1 µM [7]: 4%; remaining at 0.5 h, 1 µM [8]: 3.7%; remaining at 1 h, 1 µM [9]: 4%; t1/2 [2]: 1.81 min; remaining at 10 min, 1 µM [10]: 12%; remaining at 0.5 h, 1 µM [11]: 8%; remaining at 5 min, 1 µM [12]: 14.8%; remaining at 5 min, 1 µM [13]: 16%; remaining at […], 1 µM [14]: 3.7%; remaining at 0 h, 1 µM [15]: 100%; Stability [3]: Stable; remaining at 10 min, 1 µM [16]: 7.41%; remaining at 0 h, 1 µM [17]: 100%; remaining at […], 1 µM [18]: 12%
